Results as given in patent US7087588B2, “Nitric oxide donors capable of reducing toxicity from drugs” (Nicox S.A., priority 1996, dated 2006).
Marks after values point to notes of the source that are not given here. One block for each compound: values may come before it.

What was measured:
[1] = Renal functionality and gastrointestinal tolerability in hypertensive rats after diclofenac, with or without DON-NO; type: in vivo, Sprague-Dawley male rats; details: spontaneously hypertensive rats, diclofenac 12 mg/kg i.p. daily, 5 days; nitroglycerin 3 mg/kg s.c.; vehicle = 100
[2] = tested on: guinea pigs; test: Capsaicin induced bronchoconstriction in enalapril-treated guinea pigs; type: in vivo, guinea pig; details: enalapril 10 mg/kg and/or NO-naproxen 10 mg/kg intraduodenally, capsaicin 1 μg/kg i.v. 45 minutes later, vehicle = 100
Method: Capsaicin-induced bronchoconstriction in guinea pigs is an animal model related to the ability of angiotensin-converting-enzyme inhibitors to provoke cough in patients (Subissi et al, J. Cardiovasc. Pharmacol. 20/1, 139–146, 1992).
Experimental conditions were as previously described by Del Soldato et al (J. Pharmacological Methods 5, 279, 1981). Female guinea pigs weighing 300–400 g were anesthetized through intraperitoneal injection of sodiun 5,5 diethylbarbiturate (200 mg/kg) and kept under artificial respiration at constant positive pressure. Jugular right vein was incannuled for the administration of the compounds. Animals received intraduodenally enalapril (10 mg/kg), vehicle (carboxymethyl cellulose 2% by weight) and/or NO-naproxen (10 mg/kg). Forty-five minutes later, it was injected intravenously 0.1 ml capsaicin (1 μg/kg). Before and after capsaicin injection, tidal air changes were measured by means of modified Konzett apparatus connected to a polygraph amplifier.
Results were calculated as ratio of the responses obtained before and after the administration of each treatment, expressed as % of the vehicle (control) response and shown in Table 7.

[3] = tested on: Washed human platelets; test: Nitric oxide generation by chemiluminescence, platelets (method b); type: cell-based; details: incubation of 100 μmoles of NO donor, 5 minutes
Method: Washed human platelets, prepared analogously with what described by Radomski et al, (Br. J. Pharmacol. 92, 639–1987), were utilized. Aliquots of 0.4 ml were incubated with scalar concentrations of NO donors (1–100 μg/ml) for 5 minutes. The incubation medium (f.i. Tyrode) was then analysed to determine the capacity of generating NO, by determination of nitric oxide by chemiluminiscence and cGMP, with the modalities described in the previous paragraph, for the analyses carried out on the endothelial cells. As to the determination by chemiluminescence, also in this case, on the basis of a calibration curve, prepared with scalar concentrations of nitrite, it was possible to determine quantitatively the concentration of generated NO. For instance, after incubation of 100 μmoles of nicorandil, an amount equal to 35 μmoles of NO was generated.

[4] = tested on: Cells of the human umbilical vein; test: Nitric oxide generation by chemiluminescence, endothelial cells (method a); type: cell-based; details: incubation of 100 μmoles of NO donor, 5 minutes
Method: In particular the test relates to the generation of nitric oxide from the NO donors of the present invention, among which, for instance, nitroglycerine, nicorandil, nitro-prussiate, etc., when they are put in the presence of endothelial cells (method a), or platelets (method b). Cells of the human umbilical vein, spread on the plate, with density of 10^3 cells/plate were incubated with scalar concentrations of NO donor (1–100 μg/ml) for 5 minutes. The incubation medium (physiologic solvent, for instance Tyrode) was then analyzed to determine the capacity to generate NO, by means of: • 1) the determination of nitric oxide by chemiluminescence; • 2) the cGMP determination (cyclic GMP No. 2715 of the above mentioned Merck). […] The nitrites/nitrates present in the medium in these conditions are converted into NO which is then determined after its reaction with ozone, with consequent generation of light. As it usually occurs in the devices measuring chemiluminescence, the produced luminescence is directly proportional to the NO levels generated and can be measured by the suitable photomultiplier unit of a chemiluminescence analyser. The photomultiplier converts the incident light into electric voltage, which is then quantitatively recorded. […]

[5] = tested on: rats; test: Tolerance to nitroglycerin after repeated subcutaneous administration in rats; type: in vivo, rat; details: nitroglycerin given with enalapril, repeated subcutaneous administration 1 mg/kg per day

SMILES: O=C(O)Cc1ccccc1Nc1c(Cl)cccc1Cl [DICLOFENAC, diclofenac]
BLOOD CREATININE, percent variation with respect to the control values [1]: 287* PERCENT

BRONCHOCONSTRICTION (%), % of the vehicle (control) response [2]: 290%
SMILES: CCOC(=O)[C@H](CCc1ccccc1)N[C@@H](C)C(=O)N1CCC[C@H]1C(=O)O [enalapril]

SMILES: O=C(NCCO[N+](=O)[O-])c1cccnc1 [nicorandil, N-[2-(nitrooxy)ethyl]-3-pyridine-carboxamide]
amount of NO generated [3]: 35 µmol
amount of NO generated [4]: about 10 μmoles

SMILES: O=[N+]([O-])OCC(CO[N+](=O)[O-])O[N+](=O)[O-] [nitroglycerin, 1,2,3 propanetriol trinitrate]
tolerance after repeated administration [5]: did not cause any tolerance
